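Dose response: 5 concentrations. Exposure: 48 h. Format: 96-well plates. Endpoint: linear interpolation; highest concentration if not reached. Definition used: TGI = concentration required for complete inhibition of growth.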
Tested on: SK-OV-3 ovarian
Experiment: NCI tumour cell line growth inhibition, 48 h

`C/C(CC(=O)CCC(=O)Nc1cccc(C(F)(F)F)c1)=N\NC(=O)NN` and `O=CN/C=C/c1cc(O)ccc1O` cannot be ordered by TGI: greater than 100 µM for the first, greater than 90.5 µM for the second.

`COc1ccccc1C12OC(=O)C1(C)Oc1ccccc1C2=O` (stereo not given) and `Brc1ccc(N=c2nc3ccccn3n3nc(-c4ccccc4)cc23)cc1` cannot be ordered by TGI: greater than 100 µM for the first, greater than 100 µM for the second.

In the case of `COC(=O)CC1CCN(C#N)CC1CC[N+](=O)[O-]` (stereo not given), the TGI is reported as greater than 100 µM.

Tested on: K-562 leukemia
Experiment: NCI tumour cell line growth inhibition, 48 h

Compared with `C/C(CC(=O)CCC(=O)Nc1cccc(C(F)(F)F)c1)=N\NC(=O)NN`, `O=CN/C=C/c1cc(O)ccc1O` is lower in TGI: greater than 100 µM for the first, 52.9 µM for the second.

`COc1ccccc1C12OC(=O)C1(C)Oc1ccccc1C2=O` (stereo not given) and `Brc1ccc(N=c2nc3ccccn3n3nc(-c4ccccc4)cc23)cc1` cannot be ordered by TGI: greater than 100 µM for the first, greater than 100 µM for the second.

Molecule `COC(=O)CC1CCN(C#N)CC1CC[N+](=O)[O-]` (stereo not given) has a TGI greater than 100 µM.

Tested on: PC-3 prostate
Experiment: NCI tumour cell line growth inhibition, 48 h

`O=CN/C=C/c1cc(O)ccc1O` gave a TGI greater than 100 µM.

Tested on: KM12 colon
Experiment: NCI tumour cell line growth inhibition, 48 h

`C/C(CC(=O)CCC(=O)Nc1cccc(C(F)(F)F)c1)=N\NC(=O)NN` and `O=CN/C=C/c1cc(O)ccc1O` cannot be ordered by TGI: greater than 100 µM for the first, greater than 100 µM for the second.

`COc1ccccc1C12OC(=O)C1(C)Oc1ccccc1C2=O` (stereo not given) and `Brc1ccc(N=c2nc3ccccn3n3nc(-c4ccccc4)cc23)cc1` cannot be ordered by TGI: greater than 100 µM for the first, greater than 100 µM for the second.

For `COC(=O)CC1CCN(C#N)CC1CC[N+](=O)[O-]` (stereo not given), the TGI was greater than 100 µM.

Tested on: RPMI-8226 leukemia
Experiment: NCI tumour cell line growth inhibition, 48 h

Going from `C/C(CC(=O)CCC(=O)Nc1cccc(C(F)(F)F)c1)=N\NC(=O)NN` to `O=CN/C=C/c1cc(O)ccc1O`, the TGI falls from greater than 100 µM to 78.2 µM.

`COc1ccccc1C12OC(=O)C1(C)Oc1ccccc1C2=O` (stereo not given) and `Brc1ccc(N=c2nc3ccccn3n3nc(-c4ccccc4)cc23)cc1` cannot be ordered by TGI: greater than 100 µM for the first, greater than 100 µM for the second.

For `COC(=O)CC1CCN(C#N)CC1CC[N+](=O)[O-]` (stereo not given), the TGI was greater than 100 µM.

Tested on: OVCAR-3 ovarian
Experiment: NCI tumour cell line growth inhibition, 48 h

Compared with `C/C(CC(=O)CCC(=O)Nc1cccc(C(F)(F)F)c1)=N\NC(=O)NN`, `O=CN/C=C/c1cc(O)ccc1O` is lower in TGI: greater than 100 µM for the first, 22.5 µM for the second.

First: COc1ccccc1C12OC(=O)C1(C)Oc1ccccc1C2=O (stereo not given)
Second: Brc1ccc(N=c2nc3ccccn3n3nc(-c4ccccc4)cc23)cc1
The TGI of the first is higher: greater than 100 µM for the first, 72.1 µM for the second.

In the case of `COC(=O)CC1CCN(C#N)CC1CC[N+](=O)[O-]` (stereo not given), the TGI is reported as greater than 100 µM.

Tested on: LXFL 529 NSCLC
Experiment: NCI tumour cell line growth inhibition, 48 h

First: C/C(CC(=O)CCC(=O)Nc1cccc(C(F)(F)F)c1)=N\NC(=O)NN
Second: O=CN/C=C/c1cc(O)ccc1O
The TGI of the first is higher: greater than 100 µM for the first, 23.9 µM for the second.

`COc1ccccc1C12OC(=O)C1(C)Oc1ccccc1C2=O` (stereo not given) and `Brc1ccc(N=c2nc3ccccn3n3nc(-c4ccccc4)cc23)cc1` cannot be ordered by TGI: greater than 100 µM for the first, greater than 100 µM for the second.

Molecule `COC(=O)CC1CCN(C#N)CC1CC[N+](=O)[O-]` (stereo not given) has a TGI greater than 100 µM.

Tested on: HCT-15 colon
Experiment: NCI tumour cell line growth inhibition, 48 h

First: C/C(CC(=O)CCC(=O)Nc1cccc(C(F)(F)F)c1)=N\NC(=O)NN
Second: O=CN/C=C/c1cc(O)ccc1O
The TGI of the first is higher: greater than 100 µM for the first, 28.2 µM for the second.

`COc1ccccc1C12OC(=O)C1(C)Oc1ccccc1C2=O` (stereo not given) and `Brc1ccc(N=c2nc3ccccn3n3nc(-c4ccccc4)cc23)cc1` cannot be ordered by TGI: greater than 100 µM for the first, greater than 100 µM for the second.

For `COC(=O)CC1CCN(C#N)CC1CC[N+](=O)[O-]` (stereo not given), the TGI was greater than 100 µM.

Tested on: SK-MEL-5 melanoma
Experiment: NCI tumour cell line growth inhibition, 48 h

First: C/C(CC(=O)CCC(=O)Nc1cccc(C(F)(F)F)c1)=N\NC(=O)NN
Second: O=CN/C=C/c1cc(O)ccc1O
The TGI of the first is higher: greater than 100 µM for the first, 39.3 µM for the second.

`COc1ccccc1C12OC(=O)C1(C)Oc1ccccc1C2=O` (stereo not given) and `Brc1ccc(N=c2nc3ccccn3n3nc(-c4ccccc4)cc23)cc1` cannot be ordered by TGI: greater than 100 µM for the first, greater than 100 µM for the second.

For `COC(=O)CC1CCN(C#N)CC1CC[N+](=O)[O-]` (stereo not given), the TGI was greater than 100 µM.

Tested on: MALME-3M melanoma
Experiment: NCI tumour cell line growth inhibition, 48 h

Going from `C/C(CC(=O)CCC(=O)Nc1cccc(C(F)(F)F)c1)=N\NC(=O)NN` to `O=CN/C=C/c1cc(O)ccc1O`, the TGI falls from greater than 100 µM to 35.6 µM.

First: COc1ccccc1C12OC(=O)C1(C)Oc1ccccc1C2=O (stereo not given)
Second: Brc1ccc(N=c2nc3ccccn3n3nc(-c4ccccc4)cc23)cc1
The TGI of the first is higher: greater than 100 µM for the first, 26.7 µM for the second.

In the case of `COC(=O)CC1CCN(C#N)CC1CC[N+](=O)[O-]` (stereo not given), the TGI is reported as greater than 100 µM.

Tested on: TK-10 renal
Experiment: NCI tumour cell line growth inhibition, 48 h

First: C/C(CC(=O)CCC(=O)Nc1cccc(C(F)(F)F)c1)=N\NC(=O)NN
Second: O=CN/C=C/c1cc(O)ccc1O
The TGI of the first is higher: greater than 100 µM for the first, 31.6 µM for the second.

Compared with `COc1ccccc1C12OC(=O)C1(C)Oc1ccccc1C2=O` (stereo not given), `Brc1ccc(N=c2nc3ccccn3n3nc(-c4ccccc4)cc23)cc1` is lower in TGI: greater than 100 µM for the first, 95.4 µM for the second.

`COC(=O)CC1CCN(C#N)CC1CC[N+](=O)[O-]` (stereo not given) showed a TGI greater than 100 µM.

Tested on: MOLT-4 leukemia
Experiment: NCI tumour cell line growth inhibition, 48 h

`C/C(CC(=O)CCC(=O)Nc1cccc(C(F)(F)F)c1)=N\NC(=O)NN` and `O=CN/C=C/c1cc(O)ccc1O` cannot be ordered by TGI: greater than 100 µM for the first, greater than 63.4 µM for the second.

`COc1ccccc1C12OC(=O)C1(C)Oc1ccccc1C2=O` (stereo not given) and `Brc1ccc(N=c2nc3ccccn3n3nc(-c4ccccc4)cc23)cc1` cannot be ordered by TGI: greater than 100 µM for the first, greater than 100 µM for the second.

`COC(=O)CC1CCN(C#N)CC1CC[N+](=O)[O-]` (stereo not given) showed a TGI greater than 100 µM.

Tested on: CCRF-CEM leukemia
Experiment: NCI tumour cell line growth inhibition, 48 h

Going from `C/C(CC(=O)CCC(=O)Nc1cccc(C(F)(F)F)c1)=N\NC(=O)NN` to `O=CN/C=C/c1cc(O)ccc1O`, the TGI falls from greater than 100 µM to 23.9 µM.

`COc1ccccc1C12OC(=O)C1(C)Oc1ccccc1C2=O` (stereo not given) and `Brc1ccc(N=c2nc3ccccn3n3nc(-c4ccccc4)cc23)cc1` cannot be ordered by TGI: greater than 100 µM for the first, greater than 100 µM for the second.

`COC(=O)CC1CCN(C#N)CC1CC[N+](=O)[O-]` (stereo not given) gave a TGI greater than 100 µM.

Tested on: OVCAR-8 ovarian
Experiment: NCI tumour cell line growth inhibition, 48 h

First: C/C(CC(=O)CCC(=O)Nc1cccc(C(F)(F)F)c1)=N\NC(=O)NN
Second: O=CN/C=C/c1cc(O)ccc1O
The TGI of the first is higher: greater than 100 µM for the first, 43 µM for the second.

`COc1ccccc1C12OC(=O)C1(C)Oc1ccccc1C2=O` (stereo not given) and `Brc1ccc(N=c2nc3ccccn3n3nc(-c4ccccc4)cc23)cc1` cannot be ordered by TGI: greater than 100 µM for the first, greater than 100 µM for the second.

With `COC(=O)CC1CCN(C#N)CC1CC[N+](=O)[O-]` (stereo not given) the TGI was greater than 100 µM.

Tested on: SF-268 CNS
Experiment: NCI tumour cell line growth inhibition, 48 h

First: C/C(CC(=O)CCC(=O)Nc1cccc(C(F)(F)F)c1)=N\NC(=O)NN
Second: O=CN/C=C/c1cc(O)ccc1O
The TGI of the first is higher: greater than 100 µM for the first, 37.5 µM for the second.

`COc1ccccc1C12OC(=O)C1(C)Oc1ccccc1C2=O` (stereo not given) and `Brc1ccc(N=c2nc3ccccn3n3nc(-c4ccccc4)cc23)cc1` cannot be ordered by TGI: greater than 100 µM for the first, greater than 100 µM for the second.
